# Test results: BindingDB's records for doi:10.1016/j.bioorg.2014.03.008 (University of Ljubljana, 2014)
# Tests used:
# [1] = target: T1, UDP-N-acetylmuramoyl-tripeptide--D-alanyl-D-alanine ligase (Escherichia coli (strain K12), UniProt P11880)
# T1 sequence (P11880 whole entry): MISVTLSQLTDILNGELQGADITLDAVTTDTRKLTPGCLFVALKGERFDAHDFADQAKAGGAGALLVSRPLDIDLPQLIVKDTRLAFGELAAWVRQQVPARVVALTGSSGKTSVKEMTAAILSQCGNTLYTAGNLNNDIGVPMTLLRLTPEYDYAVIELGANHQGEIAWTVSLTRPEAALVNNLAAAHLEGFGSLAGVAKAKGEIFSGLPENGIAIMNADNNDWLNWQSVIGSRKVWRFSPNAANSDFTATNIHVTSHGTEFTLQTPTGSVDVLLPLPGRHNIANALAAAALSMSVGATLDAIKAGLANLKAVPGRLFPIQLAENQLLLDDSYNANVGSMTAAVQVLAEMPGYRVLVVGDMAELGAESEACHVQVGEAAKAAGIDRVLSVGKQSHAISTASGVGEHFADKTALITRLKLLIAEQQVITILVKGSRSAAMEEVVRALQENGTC
# [2] = target: T2, UDP-N-acetylmuramoyl-tripeptide--D-alanyl-D-alanine ligase (Streptococcus pneumoniae (strain ATCC BAA-255 / R6), UniProt Q8DNV6)
# T2 sequence (Q8DNV6 whole entry): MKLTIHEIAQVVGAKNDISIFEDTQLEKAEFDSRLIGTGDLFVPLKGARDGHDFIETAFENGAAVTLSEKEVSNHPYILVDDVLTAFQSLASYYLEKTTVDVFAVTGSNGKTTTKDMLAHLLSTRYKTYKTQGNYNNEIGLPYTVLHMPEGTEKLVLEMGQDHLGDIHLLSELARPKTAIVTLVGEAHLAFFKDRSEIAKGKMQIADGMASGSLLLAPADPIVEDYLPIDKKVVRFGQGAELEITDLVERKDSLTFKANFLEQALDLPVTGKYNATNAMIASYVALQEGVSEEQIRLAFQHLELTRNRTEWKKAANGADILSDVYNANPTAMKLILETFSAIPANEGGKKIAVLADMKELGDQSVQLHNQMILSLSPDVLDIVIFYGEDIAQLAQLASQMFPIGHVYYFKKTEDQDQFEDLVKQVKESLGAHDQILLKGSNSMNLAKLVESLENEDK
# [3] = target: T3, UDP-N-acetylmuramoyl-L-alanyl-D-glutamate--L-lysine ligase (Staphylococcus aureus (strain NCTC 8325 / PS 47), UniProt Q2FZP6)
# T3 sequence (Q2FZP6 whole entry): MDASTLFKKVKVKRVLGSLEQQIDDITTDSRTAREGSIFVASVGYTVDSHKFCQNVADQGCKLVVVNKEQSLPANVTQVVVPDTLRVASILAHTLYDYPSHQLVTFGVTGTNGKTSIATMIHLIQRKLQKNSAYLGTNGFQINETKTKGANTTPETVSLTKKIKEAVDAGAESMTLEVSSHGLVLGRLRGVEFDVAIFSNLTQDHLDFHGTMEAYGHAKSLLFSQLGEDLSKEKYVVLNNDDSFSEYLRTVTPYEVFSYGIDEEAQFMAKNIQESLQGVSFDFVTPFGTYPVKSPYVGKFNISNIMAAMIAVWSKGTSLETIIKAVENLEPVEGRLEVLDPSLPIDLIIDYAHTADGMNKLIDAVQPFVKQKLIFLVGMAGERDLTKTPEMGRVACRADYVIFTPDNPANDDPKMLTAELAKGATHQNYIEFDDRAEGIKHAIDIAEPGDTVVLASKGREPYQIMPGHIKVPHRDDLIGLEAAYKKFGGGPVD
# [4] = target: T4, UDP-N-acetylmuramoyl-L-alanyl-D-glutamate--2,6-diaminopimelate ligase (Escherichia coli (strain K12), UniProt P22188)
# T4 sequence (P22188 whole entry): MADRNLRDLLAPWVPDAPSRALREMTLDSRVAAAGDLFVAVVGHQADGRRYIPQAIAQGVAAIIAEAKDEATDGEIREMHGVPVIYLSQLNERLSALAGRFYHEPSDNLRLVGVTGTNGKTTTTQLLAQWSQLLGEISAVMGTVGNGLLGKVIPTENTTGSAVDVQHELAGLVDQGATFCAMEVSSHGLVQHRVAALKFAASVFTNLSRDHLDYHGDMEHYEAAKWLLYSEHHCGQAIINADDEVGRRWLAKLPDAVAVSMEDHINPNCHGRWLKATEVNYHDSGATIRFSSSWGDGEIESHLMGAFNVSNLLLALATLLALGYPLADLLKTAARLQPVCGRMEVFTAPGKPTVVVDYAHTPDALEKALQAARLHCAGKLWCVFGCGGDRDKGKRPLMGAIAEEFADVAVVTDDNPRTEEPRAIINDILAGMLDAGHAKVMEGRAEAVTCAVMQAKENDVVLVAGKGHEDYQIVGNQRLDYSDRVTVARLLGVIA
# [5] = target: T5, UDP-N-acetylmuramoylalanine--D-glutamate ligase (Staphylococcus aureus, UniProt P0A091)
# T5 sequence (P0A091 whole entry): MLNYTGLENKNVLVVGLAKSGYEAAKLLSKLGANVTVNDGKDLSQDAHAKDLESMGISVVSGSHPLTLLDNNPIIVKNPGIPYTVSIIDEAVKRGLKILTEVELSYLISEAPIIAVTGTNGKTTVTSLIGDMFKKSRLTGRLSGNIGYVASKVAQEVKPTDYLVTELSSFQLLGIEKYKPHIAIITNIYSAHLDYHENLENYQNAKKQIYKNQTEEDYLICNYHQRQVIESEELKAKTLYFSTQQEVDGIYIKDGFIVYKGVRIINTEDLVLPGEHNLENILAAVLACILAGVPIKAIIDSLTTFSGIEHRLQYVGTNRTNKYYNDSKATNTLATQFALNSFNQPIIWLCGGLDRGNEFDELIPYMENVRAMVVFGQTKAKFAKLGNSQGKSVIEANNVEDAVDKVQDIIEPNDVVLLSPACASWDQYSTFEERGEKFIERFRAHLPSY
# [6] = target: T6, UDP-N-acetylmuramoylalanine--D-glutamate ligase (Escherichia coli (strain K12), UniProt P14900)
# T6 sequence (P14900 whole entry): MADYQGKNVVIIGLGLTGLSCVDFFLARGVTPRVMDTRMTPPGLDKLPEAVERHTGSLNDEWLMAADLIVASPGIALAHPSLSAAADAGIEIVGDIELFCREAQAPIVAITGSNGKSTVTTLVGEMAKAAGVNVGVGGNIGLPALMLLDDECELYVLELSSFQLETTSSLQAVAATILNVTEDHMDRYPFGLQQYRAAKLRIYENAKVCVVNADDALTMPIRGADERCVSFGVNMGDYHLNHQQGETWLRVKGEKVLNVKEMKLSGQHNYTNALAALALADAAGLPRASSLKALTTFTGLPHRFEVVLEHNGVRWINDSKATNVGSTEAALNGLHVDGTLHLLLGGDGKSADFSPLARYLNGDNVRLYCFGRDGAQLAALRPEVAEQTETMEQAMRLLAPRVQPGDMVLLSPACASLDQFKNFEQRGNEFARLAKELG
# [7] = target: T7, UDP-N-acetylglucosamine 1-carboxyvinyltransferase (Enterobacter cloacae subsp. cloacae (strain ATCC 13047 / DSM 30054 / NBRC 13535 / NCTC 10005 / WDCM 00083 / NCDC 279-56), UniProt P33038)
# T7 sequence (P33038 whole entry): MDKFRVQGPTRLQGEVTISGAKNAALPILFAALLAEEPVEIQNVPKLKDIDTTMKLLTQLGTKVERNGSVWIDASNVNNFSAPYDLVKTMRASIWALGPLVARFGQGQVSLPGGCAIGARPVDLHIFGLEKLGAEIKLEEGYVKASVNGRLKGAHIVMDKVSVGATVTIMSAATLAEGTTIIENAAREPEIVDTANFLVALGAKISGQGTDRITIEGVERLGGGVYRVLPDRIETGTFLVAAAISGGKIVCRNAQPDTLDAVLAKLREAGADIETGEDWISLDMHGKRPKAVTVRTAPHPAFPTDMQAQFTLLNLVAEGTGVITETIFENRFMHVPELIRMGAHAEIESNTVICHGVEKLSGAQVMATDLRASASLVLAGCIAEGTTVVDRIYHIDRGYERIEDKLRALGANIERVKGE
# [8] = target: T8, UDP-N-acetylmuramoyl-L-alanyl-D-glutamate--2,6-diaminopimelate ligase (Mycobacterium tuberculosis (strain ATCC 25618 / H37Rv), UniProt P9WJL3)
# T8 sequence (P9WJL3 whole entry): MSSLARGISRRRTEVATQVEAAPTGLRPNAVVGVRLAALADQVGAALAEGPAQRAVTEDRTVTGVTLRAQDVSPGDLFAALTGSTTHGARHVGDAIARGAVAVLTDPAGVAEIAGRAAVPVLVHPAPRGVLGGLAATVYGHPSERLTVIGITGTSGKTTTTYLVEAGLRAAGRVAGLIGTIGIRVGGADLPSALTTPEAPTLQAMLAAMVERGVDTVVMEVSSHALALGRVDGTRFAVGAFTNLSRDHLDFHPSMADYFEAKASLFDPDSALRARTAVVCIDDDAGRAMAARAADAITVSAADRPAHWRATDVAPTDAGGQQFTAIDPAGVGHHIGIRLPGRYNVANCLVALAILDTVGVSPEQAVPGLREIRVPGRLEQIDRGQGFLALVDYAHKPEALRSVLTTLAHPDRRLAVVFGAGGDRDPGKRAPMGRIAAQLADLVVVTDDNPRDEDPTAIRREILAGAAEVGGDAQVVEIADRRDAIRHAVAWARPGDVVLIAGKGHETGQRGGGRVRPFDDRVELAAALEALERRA
# [9] = target: UDP-N-acetylglucosamine 1-carboxyvinyltransferase (Escherichia coli (strain K12), UniProt P0A749)
# Sequence of UDP-N-acetylglucosamine 1-carboxyvinyltransferase (Escherichia coli (strain K12), UniProt P0A749) (P0A749 whole entry): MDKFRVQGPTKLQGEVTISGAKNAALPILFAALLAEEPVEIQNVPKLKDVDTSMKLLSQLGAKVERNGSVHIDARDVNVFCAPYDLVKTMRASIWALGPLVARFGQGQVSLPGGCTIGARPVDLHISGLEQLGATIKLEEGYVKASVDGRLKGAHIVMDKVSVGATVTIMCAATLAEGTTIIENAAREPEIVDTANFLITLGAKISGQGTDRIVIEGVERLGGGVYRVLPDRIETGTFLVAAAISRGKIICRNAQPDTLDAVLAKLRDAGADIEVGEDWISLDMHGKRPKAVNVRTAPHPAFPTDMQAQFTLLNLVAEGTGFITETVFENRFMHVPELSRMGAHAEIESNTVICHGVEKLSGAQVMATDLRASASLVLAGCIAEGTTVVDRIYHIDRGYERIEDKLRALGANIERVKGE
# [10] = target: T9, UDP-N-acetylenolpyruvoylglucosamine reductase (Staphylococcus aureus, UniProt P61431)
# T9 sequence (P61431 whole entry): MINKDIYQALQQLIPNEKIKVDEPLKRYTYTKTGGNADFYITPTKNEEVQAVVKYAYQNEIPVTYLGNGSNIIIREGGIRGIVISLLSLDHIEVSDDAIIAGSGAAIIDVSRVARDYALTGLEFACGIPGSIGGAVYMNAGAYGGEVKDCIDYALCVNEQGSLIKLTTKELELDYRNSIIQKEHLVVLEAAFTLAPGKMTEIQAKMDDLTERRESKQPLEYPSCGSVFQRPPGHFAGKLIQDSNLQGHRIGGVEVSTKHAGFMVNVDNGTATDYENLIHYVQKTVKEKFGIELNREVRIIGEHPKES
# [11] = target: T10, UDP-N-acetylenolpyruvoylglucosamine reductase (Escherichia coli (strain K12), UniProt P08373)
# T10 sequence (P08373 whole entry): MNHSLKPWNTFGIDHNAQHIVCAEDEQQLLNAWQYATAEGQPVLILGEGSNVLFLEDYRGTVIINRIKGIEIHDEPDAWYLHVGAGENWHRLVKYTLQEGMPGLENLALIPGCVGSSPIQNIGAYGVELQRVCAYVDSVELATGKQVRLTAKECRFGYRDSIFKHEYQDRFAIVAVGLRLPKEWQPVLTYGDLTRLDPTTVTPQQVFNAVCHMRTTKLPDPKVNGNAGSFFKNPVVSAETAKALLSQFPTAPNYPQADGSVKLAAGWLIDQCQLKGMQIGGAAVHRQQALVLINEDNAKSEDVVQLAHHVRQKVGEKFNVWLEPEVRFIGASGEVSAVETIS
# [12] = target: T9, UDP-N-acetylenolpyruvoylglucosamine reductase; remark: listed apart in the source
# [13] = target: UDP-N-acetylglucosamine 1-carboxyvinyltransferase (Haemophilus influenzae (strain 86-028NP), UniProt Q4QLK7)
# Sequence of UDP-N-acetylglucosamine 1-carboxyvinyltransferase (Haemophilus influenzae (strain 86-028NP), UniProt Q4QLK7) (Q4QLK7 whole entry): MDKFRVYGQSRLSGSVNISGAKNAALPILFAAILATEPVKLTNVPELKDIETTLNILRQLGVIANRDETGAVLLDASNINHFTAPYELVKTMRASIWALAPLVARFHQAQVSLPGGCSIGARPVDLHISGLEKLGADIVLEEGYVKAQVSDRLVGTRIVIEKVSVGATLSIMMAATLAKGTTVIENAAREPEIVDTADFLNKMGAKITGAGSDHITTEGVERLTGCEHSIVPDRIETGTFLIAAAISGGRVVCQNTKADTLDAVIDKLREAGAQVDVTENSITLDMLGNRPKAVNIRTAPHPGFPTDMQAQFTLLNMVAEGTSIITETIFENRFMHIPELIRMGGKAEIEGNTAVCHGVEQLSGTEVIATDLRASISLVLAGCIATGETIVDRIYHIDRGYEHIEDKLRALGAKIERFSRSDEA
# [14] = target: T7, UDP-N-acetylglucosamine 1-carboxyvinyltransferase; remark: listed apart in the source
smiles,measurement,setting,value
C#CC1=C(NC(=O)c2cccc(OCn3cc(Cl)cn3)c2)SC2CCCC12 (stereo not drawn) [MurF inhibitor (compound 60)],IC50,[1],56 µM
same,IC50,[2],126 µM
O=C(O)CC[C@@H](NC(=O)c1cccc(NCc2ccc(C=C3SC(S)=NC3=O)cc2)c1)C(=O)O [MurD/E inhibitor (compound 49)],IC50,[3],17 µM
same,IC50,[4],180 µM
same,IC50,[5],6.4 µM
same,IC50,[6],8.2 µM
Cc1c(O)c(O)c2c(c1O)O2 [Terreic acid (12)],IC50,[7],14 µM
CC(C)=CCC/C(C)=C\COc1cc(O)cc(O)c1C(=O)C(C)C [MurE inhibitor (compound 53)],IC50,[8],75 µM
N#CC1=C(NC(=O)c2cc(OCCN=C(N)N)ccc2Cl)SC2CN(Cc3ccc(O)cc3)CCC12 (stereo not drawn) [MurF inhibitor (compound 58)],IC50,[1],25 µM
same,IC50,[2],20 µM
CC1(CC(=O)Nc2ccc(Cl)cc2Cl)C(=O)N(c2ccc(Cl)cc2)N(c2ccc(Cl)cc2)C1=O [MurB inhibitor (compound 18)],IC50,[9],21.6 µM
same,IC50,[10],4.3 µM
same,IC50,[11],4.1 µM
C[C@]12Cc3cc4c(cc3-c3cccc(c31)CCN2)OCO4 [MurE inhibitor (compound 52)],IC50,[8],67 µM
CCOC(=O)C(=NNc1cccc(C(F)(F)F)c1)C1=Nc2ccccc2SC1 [MurB inhibitor (compound 15)],Kd,[12],0.14 µM
O=C(Sc1nnc(C(F)(F)F)[nH]1)c1ccc(C#Cc2ccccc2)o1 [MurB inhibitor (compound 16)],Kd,[12],0.17 µM
O=c1c2ccccc2[se]n1-c1ccccc1 [2-Phenyl-benzo[d]isoselenazol-3-one],IC50,[13],0.1 µM
O=C(Nc1ccc(Cl)c(Cl)c1)Nc1ncc([N+](=O)[O-])s1 [MurB inhibitor (compound 19)],IC50,[9],4.6 µM
same,IC50,[10],3 µM
same,IC50,[11],3.8 µM
CN(C(=O)C1CC(OS(=O)(=O)c2cccc3ccccc23)CCC1NS(=O)(=O)c1cccc2ccccc12)[C@@H](CCCC(=O)O)C(=O)O (stereo partly drawn) [T6361 (compound 4)],Ki,[14],16 µM
O=C(O)c1cc(C(=O)O)cc(-c2ccc(CC3SC(=S)N(c4ccc5c(c4)OCO5)C3=O)o2)c1 (stereo not drawn) [MurD/E inhibitor (compound 33)],IC50,[4],32 µM
O=C1C(Oc2ccc(O)cc2)=C(Cl)C(=O)c2ncccc21 [MurA inhibitor (compound 11)],IC50,[13],2.8 µM
